Structures can show the parent of a compound that is named as a salt. Blank lines part the entries; values can stand above or below the compound they belong to.
How the values were obtained:
Type in all cases: biochemical
[1] = molecular target: T1, C1S (Homo sapiens, UniProt P09871); experiment: In vitro inhibition of purified enzymes, Ki determination: C1S; settings: no enzyme-specific conditions printed
T1 sequence (P09871 16-688): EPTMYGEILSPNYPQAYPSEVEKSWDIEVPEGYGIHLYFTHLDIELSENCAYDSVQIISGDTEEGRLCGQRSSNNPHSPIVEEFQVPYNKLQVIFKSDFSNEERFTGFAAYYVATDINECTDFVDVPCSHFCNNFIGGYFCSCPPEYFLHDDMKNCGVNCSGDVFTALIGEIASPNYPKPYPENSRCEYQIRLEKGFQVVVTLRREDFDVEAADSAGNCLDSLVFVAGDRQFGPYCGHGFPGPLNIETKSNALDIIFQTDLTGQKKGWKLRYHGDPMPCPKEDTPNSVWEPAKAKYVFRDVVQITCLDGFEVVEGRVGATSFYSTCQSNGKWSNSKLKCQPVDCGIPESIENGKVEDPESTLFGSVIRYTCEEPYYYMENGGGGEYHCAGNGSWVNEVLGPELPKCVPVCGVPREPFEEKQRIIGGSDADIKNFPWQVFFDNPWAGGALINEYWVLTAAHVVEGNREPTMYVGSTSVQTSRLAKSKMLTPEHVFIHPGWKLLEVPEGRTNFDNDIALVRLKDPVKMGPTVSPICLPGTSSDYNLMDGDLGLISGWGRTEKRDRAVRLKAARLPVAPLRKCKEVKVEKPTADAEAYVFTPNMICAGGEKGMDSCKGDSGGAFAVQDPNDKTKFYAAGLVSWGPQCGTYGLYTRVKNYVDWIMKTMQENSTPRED
Description: (§1) Human α-thrombin, human factor Xa and human plasmin were obtained from Enzyme Research Laboratories (South Bend, Ind.). Bovine α-chymotrypsin (Sigma C4129), bovine trypsin (Sigma T8642) and human kidney cell urokinase (Sigma U5004) were obtained from Sigma. Human leukocyte elastase was obtained from Elastin Products (Pacific, Mo.). Ki Determinations: All assays are based on the ability of the test compound to inhibit the enzyme catalyzed hydrolysis of a peptide p-nitroanilide substrate. […] The final concentrations for each of the substrates is listed below. In general, substrate concentrations are lower than the experimentally determined value for Km. […]
(§2) In a typical Ki determination, into each well of a 96 well plate is pipetted 280 μL of substrate solution, 10 μL of test compound solution, and the plate allowed to thermally equilibrate at 37° C. in a Molecular Devices plate reader for >15 minutes. Reactions were initiated by the addition of a 10 μL aliquot of enzyme and the absorbance increase at 405 nm is recorded for 15 minutes. […] The ratio of the velocity (rate of change in absorbance as a function of time) for a sample containing no test compound is divided by the velocity of a sample containing test compound, and is plotted as a function of test compound concentration. The data are fit to a linear regression, and the value of the slope of the line calculated. […]

[2] = molecular target: tPA (Homo sapiens, UniProt P00750); experiment: In vitro inhibition of purified enzymes, Ki determination: tPA; settings: no enzyme-specific conditions printed
tPA, sequence (P00750 36-562, species assumed): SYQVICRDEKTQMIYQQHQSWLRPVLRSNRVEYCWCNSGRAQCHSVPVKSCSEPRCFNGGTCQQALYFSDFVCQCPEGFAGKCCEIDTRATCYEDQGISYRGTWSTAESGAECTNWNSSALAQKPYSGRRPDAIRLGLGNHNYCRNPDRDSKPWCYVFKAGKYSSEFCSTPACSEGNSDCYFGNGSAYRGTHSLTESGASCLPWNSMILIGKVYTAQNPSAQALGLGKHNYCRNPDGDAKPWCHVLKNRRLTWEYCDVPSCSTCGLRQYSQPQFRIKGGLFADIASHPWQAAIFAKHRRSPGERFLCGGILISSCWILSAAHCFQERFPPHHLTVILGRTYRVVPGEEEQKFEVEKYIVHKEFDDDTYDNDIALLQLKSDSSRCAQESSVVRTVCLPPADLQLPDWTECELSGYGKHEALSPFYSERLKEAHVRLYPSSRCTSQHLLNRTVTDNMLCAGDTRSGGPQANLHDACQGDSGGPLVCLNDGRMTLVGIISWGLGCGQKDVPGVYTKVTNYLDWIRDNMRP
Description: as §1, §2

[3] = molecular target: T2, Bovine α-chymotrypsin (Bos taurus, UniProt P00766); experiment: In vitro inhibition of purified enzymes, Ki determination: chymotrypsin; settings: substrate N-succinyl-Ala-Ala-Pro-Phe-p-nitroanilide 14 μM, [Chymotrypsin]=2.7 nM, pH 7.5, 37° C.
T2 construct: purchased Sigma C4129
Description: (§3) Reagents: All buffer salts were obtained from Sigma Chemical Company (St. Louis, Mo.), and were of the highest purity available. The enzyme substrates, N-benzoyl-Phe-Val-Arg-p-nitroanilide (Sigma B7632), N-benzoyl-Ile-Glu-Gly-Arg-p-nitroanilide hydrochloride (Sigma B2291), N-p-tosyl-Gly-Pro-Lys-p-nitroanilide (Sigma T6140), N-succinyl-Ala-Ala-Pro-Phe-p-nitroanilide (Sigma S7388) and N-CBZ-Val-Gly-Arg-p-nitroanilide (Sigma C7271) were obtained from Sigma. N-Succinyl-Ala-Ala-Pro-Arg-p-nitroanilide (BACHEM L-1720) and N-succinyl-Ala-Ala-Pro-Val-p-nitroanilide (BACHEM L-1770) were obtained from BACHEM (King of Prussia, Pa).
(§4) Human α-thrombin, human factor Xa and human plasmin were obtained from Enzyme Research Laboratories (South Bend, Ind.). […] In general, substrate concentrations are lower than the experimentally determined value for Km. […]
(§5) In a typical Ki determination, into each well of a 96 well plate is pipetted 280 μL of substrate solution, 10 μL of test compound solution, and the plate allowed to thermally equilibrate at 37° C. in a Molecular Devices plate reader for >15 minutes. Reactions were initiated by the addition of a 10 μL aliquot of enzyme and the absorbance increase at 405 nm is recorded for 15 minutes. […] The data are fit to a linear regression, and the value of the slope of the line calculated. The inverse of the slope is the experimentally determined Ki value. […]

[4] = molecular target: T3, human plasmin (Homo sapiens, UniProt P00747); experiment: In vitro inhibition of purified enzymes, Ki determination: plasmin; settings: substrate N-p-Tosyl-Gly-Pro-Lys-p-nitroanilide 37 μM, [Plasmin]=8 nM, pH 7.5, 37° C.
T3 construct: purchased Enzyme Research Laboratories
T3 sequence (P00747 581-810 limits assumed): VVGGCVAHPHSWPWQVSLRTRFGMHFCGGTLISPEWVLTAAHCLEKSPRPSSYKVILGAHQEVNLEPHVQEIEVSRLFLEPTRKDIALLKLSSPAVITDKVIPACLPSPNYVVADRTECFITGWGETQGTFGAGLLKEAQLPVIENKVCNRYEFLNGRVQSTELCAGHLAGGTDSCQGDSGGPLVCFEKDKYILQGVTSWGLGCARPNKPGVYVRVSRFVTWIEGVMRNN
T3 sequence (P00747 97-580 partner limits assumed): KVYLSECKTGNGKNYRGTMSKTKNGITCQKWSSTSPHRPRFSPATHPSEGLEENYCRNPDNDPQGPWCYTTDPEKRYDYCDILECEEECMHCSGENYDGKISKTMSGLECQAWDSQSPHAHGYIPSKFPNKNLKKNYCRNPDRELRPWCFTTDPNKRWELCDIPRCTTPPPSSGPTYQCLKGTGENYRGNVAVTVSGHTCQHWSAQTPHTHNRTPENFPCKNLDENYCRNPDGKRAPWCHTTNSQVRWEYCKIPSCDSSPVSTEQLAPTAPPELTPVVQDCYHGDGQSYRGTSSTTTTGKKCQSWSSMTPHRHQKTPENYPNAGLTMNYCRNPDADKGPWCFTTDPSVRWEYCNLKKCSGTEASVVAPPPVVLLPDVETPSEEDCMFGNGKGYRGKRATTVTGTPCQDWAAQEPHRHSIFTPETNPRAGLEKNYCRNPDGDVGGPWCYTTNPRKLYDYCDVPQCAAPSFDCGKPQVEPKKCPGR
Description: as §3, §4, §5

[5] = molecular target: T4, human factor Xa (Homo sapiens, UniProt P00742); experiment: In vitro inhibition of purified enzymes, Ki determination: Factor Xa; settings: substrate N-benzoyl-Ile-Glu-Gly-Arg-p-nitroanilide hydrochloride 51 μM, [FXa]=10 nM, pH 7.5, 37° C.
T4 construct: purchased Enzyme Research Laboratories
T4 sequence (P00742 235-488 limits assumed): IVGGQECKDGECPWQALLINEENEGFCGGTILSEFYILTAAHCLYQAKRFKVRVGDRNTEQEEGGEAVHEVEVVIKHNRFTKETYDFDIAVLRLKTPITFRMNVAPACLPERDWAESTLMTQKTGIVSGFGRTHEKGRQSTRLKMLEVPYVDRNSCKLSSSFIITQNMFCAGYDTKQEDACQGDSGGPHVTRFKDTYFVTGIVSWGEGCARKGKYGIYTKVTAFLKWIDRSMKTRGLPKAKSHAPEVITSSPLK
T4 sequence (P00742 41-179 partner limits assumed): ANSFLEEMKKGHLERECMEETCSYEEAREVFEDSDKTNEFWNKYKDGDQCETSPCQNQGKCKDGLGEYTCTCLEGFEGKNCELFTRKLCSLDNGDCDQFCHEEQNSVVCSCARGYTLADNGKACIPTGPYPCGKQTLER
Description: as §3, §4, §5

Compound: CSc1sc(C(=N)N)cc1-c1nc(-c2ccc(Cl)cc2)cs1 [Example 1, 4-[4-(4-chlorophenyl)(1,3-thiazol-2-yl)]-5-methylthiothiophene-2-carboxamidine]
Ki [2]: 9.49 µM

Compound: CSc1sc(C(=N)N)cc1-c1nc(-c2ccc([N+](=O)[O-])cc2)cs1 [Example 11, 5-Methylthio-4-[4-(4-nitrophenyl)(1,3-thiazol-2-yl)]thiophene-2-carboxamidine hydrochloride]
Ki [3]: 4.9 µM

Compound: CSc1sc(C(=N)N)cc1-c1nc(-c2ccc3c(c2)OCCO3)cs1 [Example 12, 4-[4-(3,4-Ethylenedioxyphenyl)thiazol-2-yl]-5-methylthiothiophene-2-carboxamidine hydrochloride]
Ki [4]: 7.31 µM

Other lines, results leading:

Ki [1]: 940 nM
Compound: 4-[Bis(phenylsulfonyl)amino]-5-methylthiophene-2-carboxamidine [Example 283]

Ki [5]: 2730 nM
Compound: CSc1sc(C(N)=NC#N)cc1-c1nc(-c2ccccc2)cs1 [Example 94, 3-Amino-2-aza-3-[5-methylthio-4-(4-phenyl(1,3-thiazol-2-yl))(2-thienyl)]prop-2-enenitrile]

Ki [5]: 3000 nM
Compound: CSc1sc(C(=N)N)cc1-c1nc(-c2sc3ccccc3c2Cl)cs1 [Example 119, 4-[4-(3-chlorobenzo[b]thiophen-2-yl)(1,3-thiazol-2-yl)]-5-methylthiothiophene-2-carboxamidine hydrochloride]

Source: patent US6403633B2, “Heteroaryl amidines, methylamidines and guanidines, and use thereof as protease inhibitors” (3-Dimensional Pharmaceuticals, Inc., priority 1998, dated 2002)
